The values below come from US9757402B2, “Method for measuring cell-to-cell transmission of α-synuclein aggregates using bimolecular fluorescence complementation system and method for screening a substance for preventing or treating neurodegenerative disease using the same” (KONKUK UNIVERSITY INDUSTRIAL COOPERATION CORP, priority 2014, dated 2017).

Holding throughout (format): in vivo, Caenorhabditis elegans
Experiment [1] concerns V1S+SV2 and daf-16(mu86); V1S+SV2 animals. As to the kind of experiment: BiFC-positive inclusion body formation / aggregate transmission in C. elegans BiFC model with GlcNAc treatment. As for the experimental part:
Pmyo-2::V1S and Pflp-21::SV2-ICR-DsRed plasmids were co-injected into the gonads of late L4-stage N2 worms with a selection marker, pRF4 which expresses a mutant collagen gene, rol-6(su1006) (Mello, C. C., et al. 1991. Efficient gene transfer in C. elegans: extrachromosomal maintenance and integration of transforming sequences. The EMBO J 10, 3959-3970), to prepare double transgenic line expressing the BiFC pair. As a negative control for BiFC, Pmyo-2::V1S alone was injected into N2 worms with pRF4, and Pflp-21::SV2-ICR-DsRed alone was injected into unc-119(ed3) mutant worms with a selection marker, pCFJ151, which expresses unc-119(+) gene (Frokjaer-Jensen, et al. 2008. Single-copy insertion of transgenes in Caenorhabditis elegans. Nat. Genet 40, 1375-1383). The plasmid Pmyo-2::V1 was prepared to express the BiFC partial sequence only by introducing the stop codon right before the α-synuclein coding sequence in Pmyo-2::V1S and was prepared using a QuickChange Site-Directed Mutagenesis Kit (Stratagene, La Jolla, Calif.). Pmyo-2::V1 and Pflp-21::SV2-ICR-DsRed plasmids were then co-injected into N2 with pRF4. In addition, Pflp-21::DsRed was injected into N2 with pRF4 as a control for the effects of general protein overexpression in neurons. For chromosomal integration of the introduced plasmids, injected lines were exposed to UV irradiation. […]

Experiment [2] has the same test system. As to the kind of experiment: Nerve degeneration in C. elegans BiFC model with GlcNAc treatment. To be noted: 10 mM GlcNAc, both V1S+SV2 and daf-16(mu86). The procedure:
Worms were immobilized with 10 mM sodium azide in M9 buffer, mounted on 2% agar pads, and covered with a coverslip. Images of the worms were acquired using Olympus FV1000 confocal laser scanning microscopy (Olympus, Tokyo, Japan). N-acetylglucosamine (GlcNAc) (Sigma) was dissolved in distilled water to prepare 1 M as stock solution. The stock solution was diluted with LB liquid medium. The L4-stage worms of each transgenic line were transferred to NGM plates containing a final concentration of 10 mM GlcNAc. The present inventors then examined the degeneration of axonal processes from the URA motor neuron (Rogers et al., 2003). These nerves were intact in the wild-type N2 at day 8. Expression of SV2 in neurons caused neuritic bleb formation and nerve fragmentation in a small number of worms (FIGS. 23g, 23h, 23i, 23j, and 23k), indicating autonomous cellular toxicity of α-synuclein in neurons. These degenerative phenotypes were further exacerbated when […] was expressed in the pharyngeal muscle, and approximately 15% of nerves were completely lost (FIG. 23k). To verify nerve fragmentation, 3-D reconstruction of the stacked images of nerve processes was performed. […] Nerve degeneration worsened as the transgenic worms aged (FIG. 23j).

The test system is the same in experiment [3]. As to the kind of experiment: Pharyngeal pumping analysis with GlcNAc treatment. As to conditions: 10 mM GlcNAc, both V1S+SV2 and daf-16(mu86). The procedure: Pharyngeal pumping was counted for 1 min at RT using a fluorescence microscope. 25 worms from each strain were analyzed. The data were expressed as PPM (Pumps Per Minute). N-acetylglucosamine (GlcNAc) (Sigma) was dissolved in distilled water to prepare 1 M as stock solution. The stock solution was diluted with LB liquid medium. The L4-stage worms of each transgenic line were transferred to NGM plates containing a final concentration of 10 mM GlcNAc.

For experiment [4] the test system is unchanged. As to the kind of experiment: Life span assay with GlcNAc treatment. To be noted: 10 mM GlcNAc, both V1S+SV2 and daf-16(mu86). As for the experimental part: Eggs laid by adult mother worms were synchronously grown up to the L4 larval stage on NGM plates seeded with E. coli OP50 at 20° C. The L4-stage worms were transferred to NGM plates containing 100 mM 5-fluoro-2′-deoxyuridine (Sigma) to prevent them from producing progeny. The number of worms that were alive or dead was recorded every 1-2 days.
(§1) N-acetylglucosamine (GlcNAc) (Sigma) was dissolved in distilled water to prepare 1 M as stock solution. The stock solution was diluted with LB liquid medium. The L4-stage worms of each transgenic line were transferred to NGM plates containing a final concentration of 10 mM GlcNAc.

Experiment [5] relates to α-synuclein aggregates. As to the kind of experiment: Dot blot and western blot of α-synuclein aggregates in transgenic worms. The procedure: N-acetylglucosamine (GlcNAc) (Sigma) was dissolved in distilled water to prepare 1 M as stock solution. The stock solution was diluted with LB liquid medium. The L4-stage worms of each transgenic line were transferred to NGM plates containing a final concentration of 10 mM GlcNAc. Adult worms were washed with M9 buffer and subsequently with PBS containing 1% Triton X-100. The worm pellet was sonicated in PBS containing 1% Triton X-100, 1% (v/v) protease inhibitor cocktail (Sigma) and centrifuged to obtain the Triton-soluble (supernatant) and insoluble (pellet) fractions. Protein concentration was measured using the BCA protein assay kit (Pierce, Rockford, USA). Protein samples (3 μg for α-synuclein expression test and 50 μg to detect polyubiquitin proteins) were loaded onto 12% SDS-PAGE gels. The primary antibodies used for western blotting were monoclonal anti-α-synuclein antibody, 274 mAb and anti-ubiquitn antibody (ab7254; Abcam, Cambridge, Mass.). Chemiluminescence detection was performed using the LAS-3000 luminescence image analyzer, (Fujifilm, Tokyo, Japan), and Multi Gauge (y3.0) software. Adult worms of each strain were washed with M9 buffer and subsequently with PBS containing 1% Triton X-100. […] Chemiluminescence detection was performed using the LAS-3000 luminescence image analyzer and Multi Gauge (v3.0) software.
In general terms: A western blot detects proteins with antibodies after separation by electrophoresis.

The test system of experiment [6] is polyubiquitinated proteins. As to the kind of experiment: Steady state levels of polyubiquitinated proteins (western blotting) in transgenic worms. As to conditions: transgenic animals treated with GlcNAc. As for the experimental part: N-acetylglucosamine (GlcNAc) (Sigma) was dissolved in distilled water to prepare 1 M as stock solution. The stock solution was diluted with LB liquid medium. The L4-stage worms of each transgenic line were transferred to NGM plates containing a final concentration of 10 mM GlcNAc. Adult worms were washed with M9 buffer and subsequently with PBS containing 1% Triton X-100. The worm pellet was sonicated in PBS containing 1% Triton X-100, 1% (v/v) protease inhibitor cocktail (Sigma) and centrifuged to obtain the Triton-soluble (supernatant) and insoluble (pellet) fractions. Protein concentration was measured using the BCA protein assay kit (Pierce, Rockford, USA). Protein samples (3 μg for α-synuclein expression test and 50 μg to detect polyubiquitin proteins) were loaded onto 12% SDS-PAGE gels. The primary antibodies used for western blotting were monoclonal anti-α-synuclein antibody, 274 mAb and anti-ubiquitn antibody (ab7254; Abcam, Cambridge, Mass.). Chemiluminescence detection was performed using the LAS-3000 luminescence image analyzer, (Fujifilm, Tokyo, Japan), and Multi Gauge (y3.0) software.

The subject of experiment [7] is lysosomal genes, sqst-1/p62. As to the kind of experiment: Expression of lysosomal and autophagy genes (qPCR) upon GlcNAc treatment. As for the experimental part:
as §1
Adult transgenic worms derived from daf-16(mu86) mutants with or without hlh-30p::hlh-30 expression were collected, and washed in M9 buffer. The worms in the buffer were sonicated and the samples were subjected to several freeze-thaw cycles using liquid nitrogen. RNA was extracted with Trizol (Invitrogen, Carlsbad, Calif.) and purified using the RNeasy kit (Qiagen, Valencia, Calif., USA). Each cDNA was synthesized from 500 ng of total RNA using the iScript cDNA synthesis kit (Bio-Rad, Hercules, Calif.). For real-time PCR, target genes and specific primers were mixed with SYBR Premix Ex Taq II (Takara, Shiga, Japan) in 96-well plates. Specific primers previously designed by other group were used (Lapierre, L. R., et al. (2013). The TFEB orthologue HLH-30 regulates autophagy and modulates longevity in Caenorhabditis elegans. Nat. Commun 4, 2267). The DNA products were analyzed using the 7500 Real-Time PCR system (Applied Biosystems, Foster City, Calif.). […]
A general note: In qPCR the cycle at which signal appears reflects the starting amount.

Experiment [8] has as its system asp-4(ok2693); V1S+SV2 and asp-1(tm666); V1S+SV2 worms. As to the kind of experiment: Epistasis analysis: GlcNAc treatment of cathepsin mutant BiFC worms. As to conditions: asp-1 and asp-4 mutant transgenic animals, in contrast to V1S+SV2 worms.
Excerpt: A plasmid expressing hlh-30p::hlh-30::gfp was obtained from Dr. Malene Hansen (Sanford-Burnham Medical Research Institute, CA, USA). The plasmid hlh-30p::hlh-30 was designed to introduce codon before the GFP coding sequence using a QuickChange Site-Directed Mutagenesis Kit to inhibit GFP expression. As a control, each Pmyo-2::V1S or Pflp 21::SV2-ICR-DsRed and hlh-30p::hlh-30 were co-injected into the gonads of late L4-stage N2 worm with pRF4. The plasmids expressing Pmyo-2::V1S, Pflp-21::SV2-ICR-DsRed and hlh-30p::hlh-30 were co-injected into the gonads of late L4-stage daf-16(mu86) mutant worms with pRF4. To analyze lysosomal dysfunction, asp-4(ok2693) and asp-1(tm666) mutant worms, in which the lysosomal enzyme cathepsin gene is inactivated, were used. Pmyo-2::V1S and Pflp-21::SV2-ICR-DsRed plasmids were co-injected into the gonads of late L4-stage mutant worms with pRF4. After transgenic lines containing the introduced plasmids were obtained, three representative lines of each genotype were used for experiments
as §1

For experiment [9], the system named is single tissue expression lines carrying V1S or SV2 alone in N2 and daf-16(mu86) mutant worms. As to the kind of experiment: GlcNAc treatment of single tissue expression lines (V1S or SV2 alone). As for the experimental part: Pmyo-2::V1S and Pflp-21::SV2-ICR-DsRed plasmids were co-injected into the gonads of late L4-stage daf-2(e1370) and daf-16(mu86) mutant worms with the pRF4. As a control for aging related BiFC models, Pmyo-2::V1S or Pflp-21::SV2::ICR::DsRed alone was injected into the gonads of late L4-stage of N2 and daf-16(mu86) mutant worms with pRF4. After several transgenic lines containing the introduced plasmids were obtained, three representative lines in each mutant background were used for experiments.
Worms were immobilized with 10 mM sodium azide in M9 buffer, mounted on 2% agar pads, and covered with a coverslip. Images of the worms were acquired using Olympus FV1000 confocal laser scanning microscopy (Olympus, Tokyo, Japan).
as §1
Adult worms of each strain were washed with M9 buffer and subsequently with PBS containing 1% Triton X-100. The worm pellet was sonicated in PBS containing 1% Triton X-100, 1% (v/v) protease inhibitor cocktail. Protein samples (500 ng) were loaded onto nitrocellulose membranes, which were then dried and incubated in blocking solution. The primary antibodies used for dot blotting were the monoclonal anti-α-synuclein antibodies 274 mAb and Syn-O2, the latter of which is specific for aggregated α-synuclein. Chemiluminescence detection was performed using the LAS-3000 luminescence image analyzer and Multi Gauge (v3.0) software.

For `CC(=O)N[C@H]1C(O)O[C@H](CO)[C@@H](O)[C@@H]1O` (stereo partly drawn) [GlcNAc, N-acetylglucosamine], the “formation of BiFC-positive inclusion bodies” value in experiment [1] (10 mM GlcNAc from L4-stage, both V1S+SV2 and daf-16(mu86), V1S+SV2 animals) is recorded as “reduced”. In experiment [1] (BiFC experimental animal model), the “transmission of α-synuclein aggregates” value is given as “inhibiting”. Further, the “phenotypes for nerve degeneration” value in experiment [2] was “significantly alleviated”. In addition, the pumping behavior entry in [3] is given as “significantly alleviated”; in experiment [3] (listed as N-acetylglucosamine) it was “increased”. Besides, the life span result in [4] is reported as “significantly alleviated”; in experiment [4] (listed as N-acetylglucosamine), “extended”. The “levels of high molecular weight (HM) α-synuclein aggregates” value in [5] (Triton-insoluble (Tx-insol) fraction of transgenic worms, western blot) was “significantly decreased”. Moreover, the “β-sheet-rich α-synuclein aggregates” value in [5] (dot blot with Syn-02 antibody, transgenic worms) is given as “reduced”. In addition, the “levels of polyubiquitinated proteins” value in experiment [6] is listed as “decreased”. Further, the “expression of lysosomal genes and autophagy gene sqst-1/p62” value in [7] is listed as “increased”. Moreover, in experiment [8], the aging-related phenotypes result is listed as “not rescued”. Further, in experiment [9] (V1S or SV2 alone in N2 and daf-16(mu86), versus untreated animals), the “pathogenic phenotypes (nerve degeneration, pumping behavior, life span)” value was “did not exhibit significant changes”. The “expression levels of α-synuclein” value in experiment [9] (dot blot, GlcNAc treatment) is given as “not changed”. The “neuronal expression of flp-21 promoter (Ds-Red)” value in experiment [9] (with or without GlcNAc treatment) is on record as “strictly confined in neuronal cells”.
